Experiments:
[1] = test system: human monocytes; assay: IL-6 production in human monocytes by LPS with or without GM3C22 or GM3C24 (ELISA); assay type: cell-based; conditions: for production of IL-6 in response to stimulation promoted by the addition of GM3C22 and GM3C24: LPS 0.06 ng/mL + GM3C22 or GM3C24, 18 hours (FIG. 11); for production of IL-6 in response to LPS stimulation: LPS 0.06 ng/mL only, 18 hours (FIG. 11)
Description: (§1) Human peripheral blood-derived monocytes (CD14 positive cells) were cultured in DMEM (Low Glucose) containing 0.5% FCS and 25 ng/mL of granulocyte/macrophage colony stimulating factor, and co-stimulated with 0.125 ng/mL of E. coli-derived lipopolysaccharide (LPS, E. coli O111:B4), and 1.25, 2.5, or 5.0 μM of N-mix (neutral glycosphingolipid mixture (Glc-Cer, Lac-Cer, Gb3, and Gb4)) or each of the ganglioside molecular species. 18 hours later, the inflammatory cytokines (IL-6, IL-1β, and TNF-α) secreted in the culture supernatant were quantitated using the ELISA method.
Under the same culture conditions as in Example 5, “GM3C16”, “GM3C18” or “GM3C24:1” which inhibited inflammation was combined to “GM3C22” or “GM3C24” which promoted inflammation. The resultant combination was added to the monocytes and further stimulated with 0.06 ng/mL of LPS (i.e., a TLR4 activating factor). 18 hours later, the inflammatory cytokine IL-6 secreted in the culture supernatant was quantitated using the ELISA method.

[2] = test system: TLR4 and TLR2; assay: IL-6 production in human monocytes stimulated with HMGB1 (TLR4 and TLR2 activating factor); assay type: cell-based; conditions: HMGB 1 5.0 μg/mL, 5 μM GM3 molecular species, 18 hours (FIG. 12)
Description: as §1
(§2) Then, under the same culture conditions as in Example 5, human monocytes were stimulated using any of 0.125 ng/mL of LPS (i.e., TLR4 activating factor), 5.0 μg/mL of high mobility group box 1 (HMGB 1) (i.e., a TLR4 and TLR2 activating factors), 20 ng/mL of Pam3Csk4 (i.e., a TLR1 and TLR2 activating factors), 1.0 ng/mL of MALP-2 (i.e., TLR2 and TLR6 activating factors), 50 ng/mL of Flagellin (i.e., a TLR5 activating factor), and 250 ng/mL of R-848 (i.e., TLR7 and TLR8 activating factors); and 5 μM of GM3 molecular species. 18 hours later, the inflammatory cytokine IL-6 secreted in the culture supernatant was quantitated using the ELISA method.

[3] = test system: Human peripheral blood-derived monocytes (CD14 positive cells); assay: LPS-dependent inflammatory cytokine production in human peripheral blood-derived monocytes (ELISA); assay type: cell-based; conditions: LPS 0.125 ng/mL + 1.25, 2.5, or 5.0 μM ganglioside; for production of IL-6 by LPS: 18 hours (FIG. 8); for production of IL-1β by LPS: 18 hours (FIG. 9); for production of TNF-α by LPS: 18 hours (FIG. 10)
Description: as §1

[4] = test system: TLR4; assay: IL-6 production in human monocytes stimulated with LPS (TLR4 activating factor); assay type: cell-based; conditions: LPS 0.125 ng/mL, 5 μM GM3 molecular species, 18 hours (FIG. 12)
Description: as §1, §2

[5] = test system: TLR1 and TLR2; assay: IL-6 production in human monocytes stimulated with Pam3Csk4 (TLR1 and TLR2 activating factor); assay type: cell-based; conditions: Pam3Csk4 20 ng/mL, 5 μM GM3 molecular species, 18 hours (FIG. 12)
Description: as §1, §2

[6] = test system: Toll-like receptor (TLR) on human monocytes; assay: IL-6 production in human monocytes stimulated with other TLR activating factors (Pam3Csk4, MALP-2, Flagellin, R-848); assay type: cell-based; conditions: 5 μM GM3 molecular species, 18 hours (FIG. 12)
Description: as §1, §2

[7] = test system: bone marrow-derived macrophages (BMDMs); assay: Cooperative TNF-α production by LPS and GM3 in bone marrow-derived macrophages (ELISA); assay type: cell-based, mouse; conditions: LPS 0.5 ng/mL, GM3 10 μM, glycosphingolipid 10 μM, 18 hours (FIG. 7)
Description: Bone marrow-derived cells harvested from the femur and tibia of C57/BL6 mice were induced to differentiate for one week using 20 ng/mL of recombinant macrophage colony-stimulating factor (M-CSF). The obtained bone marrow-derived macrophages (BMDMs) were cultured overnight in DMEM containing 0.5% fetal bovine serum and co-stimulated with LPS (0.5 ng/mL), GM3 (10 μM), and each glycosphingolipid (10 μM). After 18 hours, the TNF-α in the culture supernatant was quantified by the ELISA method.

[8] = test system: RAW 264.7 cells; assay: LPS-dependent TNF-α production in RAW 264.7 cells (ELISA); assay type: cell-based, mouse; conditions: for TNF-α production by LPS on addition of 1 μM or less of ganglioside: LPS 2.0 ng/mL (FIG. 4); for TNF-α production by LPS: LPS 0.5 ng/mL + each glycosphingolipid 1.0 μM, 0.5% fetal bovine serum, 18 hours (FIG. 3); for inflammation promoted by LPS (LPS-dependent TNF-α production): LPS 2.0 ng/mL + glycosphingolipid 0.25 to 2.0 μM, 18 hours (FIG. 4)
Description: A serum ganglioside mimic resembling the composition of these gangliosides was used to treat a macrophage-like cultured cell line in which the serum in the medium was removed and reduced: RAW 264.7 cells (0.5% fetal bovine-derived serum). Then, an actual influence on TNF-α production by TLR4 ligand (LPS) stimulation was examined.
RAW 264.7 cells cultured overnight in DMEM containing 0.5% fetal bovine serum were co-stimulated by 0.5 ng/mL of lipopolysaccharide (LPS) and ganglioside (serum ganglioside mimic) at a concentration resembling the composition of serum ganglioside. 18 hours later, the TNF-α in the culture supernatant was quantitated by an ELISA method.
RAW 264.7 cells cultured overnight in DMEM containing 0.5% fetal bovine serum were co-stimulated by LPS (0.5 ng/mL) and each glycosphingolipid (1.0 μM). 18 hours later, the TNF-α in the culture supernatant was quantitated by the ELISA method.
RAW 264.7 cells cultured overnight in DMEM containing 0.5% fetal bovine serum were co-stimulated by LPS (2.0 ng/mL) and each glycosphingolipid (0.25 to 2.0 μM). 18 hours later, the TNF-α in the culture supernatant was quantitated by the ELISA method.

[9] = test system: RAW 264.7 cells; assay: Cooperative TNF-α production by LPS and GM3 in RAW 264.7 cells (ELISA); assay type: cell-based, mouse; conditions: LPS 0.5 ng/mL; for TNF-α production by LPS and GM3 on addition of 1 μM or less of ganglioside: 1 μM (GM3 ratio; 10:1) or less, GM3 5.0 μM (FIG. 5); for synergistic increases in productions of TNF-α by GM3 and LPS: glycosphingolipid 0.25 to 1.0 μM
Description: RAW 264.7 cells cultured overnight in DMEM containing 0.5% fetal bovine serum were co-stimulated by each glycosphingolipid (0.25 to 1.0 μM), LPS (0.5 ng/mL), and GM3 (5.0 μM). 18 hours later, the TNF-α in the culture supernatant was quantitated by the ELISA method.

[10] = test system: bone marrow-derived macrophages (BMDMs); assay: LPS-dependent TNF-α production in bone marrow-derived macrophages (ELISA); assay type: cell-based, mouse; conditions: LPS 0.5 ng/mL + glycosphingolipid 10 μM, 18 hours (FIG. 6)
Description: Bone marrow-derived cells harvested from the femur and tibia of C57/BL6 mice were induced to differentiate for one week using 20 ng/mL of recombinant macrophage colony-stimulating factor (M-CSF). The obtained bone marrow-derived macrophages (BMDMs) were cultured overnight in DMEM containing 0.5% fetal bovine serum and co-stimulated with LPS (0.5 ng/mL) and each glycosphingolipid (10 μM). 18 hours later, the TNF-α in the culture supernatant was quantitated by the ELISA method.

Compound | production of IL-6 in response to stimulation promoted by the addition of GM3C22 and GM3C24 [1] | production of IL-6 in response to LPS stimulation [1] | IL-6 production by HMGB1 [2] | production of IL-6 by LPS [3] | production of IL-1β by LPS [3] | production of TNF-α by LPS [3] | IL-6 production by LPS [4] | IL-6 production by Pam3Csk4 [5] | IL-6 production in other TLR activating factors [6] | cooperative TNF-α production by LPS and GM3 in bone marrow-derived macrophages [7] | TNF-α production by LPS on addition of 1 μM or less of ganglioside [8] | TNF-α production by LPS [8] | inflammation promoted by LPS (LPS-dependent TNF-α production) [8] | TNF-α production by LPS and GM3 on addition of 1 μM or less of ganglioside [9] | synergistic increases in productions of TNF-α by GM3 and LPS ([9]; GM3 5.0 μM, 18 hours (FIG. 5)) | LPS-dependent TNF-α production in bone marrow-derived macrophages [10] | IC50 ([9]; TNF-α production, GM3 5.0 μM, 18 hours (FIG. 5), read-out: 50% inhibitory concentration for cooperative activation of LPS and GM3) [nM]
CCCCCCCCCCCCCC=CC(O)C(COC1OC(CO)C(OC2OC(CO)C(O)C(OC3(C(=O)O)CC(O)C(NC(C)=O)C(C(O)C(O)CO)O3)C2O)C(O)C1O)NC(=O)CCCCCCCCCCCCCCC (stereo not drawn) [GM3C16] | strongly inhibited | strongly inhibited | inhibitory action | inhibiting | inhibiting | inhibiting | inhibitory action | inhibitory action was also observed | – | – | – | – | – | – | – | – | –
CCCCCCCCCCCCCC=CC(O)C(COC1OC(CO)C(OC2OC(CO)C(O)C(OC3(C(=O)O)CC(O)C(NC(C)=O)C(C(O)C(O)CO)O3)C2O)C(O)C1O)NC(=O)CCCCCCCCCCCCCCCCC (stereo not drawn) [GM3C18] | strongly inhibited | strongly inhibited | inhibitory action | inhibiting | inhibiting | inhibiting | inhibitory action | inhibitory action was also observed | – | – | – | – | – | – | – | – | –
CCCCCCCCCCCCCC=CC(O)C(COC1OC(CO)C(OC2OC(CO)C(O)C(OC3(C(=O)O)CC(O)C(NC(C)=O)C(C(O)C(O)CO)O3)C2O)C(O)C1O)NC(=O)CCCCCCCCCCCCCCCCCCCCC (stereo not drawn) [GM3C22, reference compound] | – | – | selectively increased | significantly enhanced | significantly enhanced | significantly enhanced | selectively increased | – | no increase | – | – | – | – | – | – | – | –
CCCCCCCCCCCCCC=CC(O)C(COC1OC(CO)C(OC2OC(CO)C(O)C(OC3(C(=O)O)CC(O)C(NC(C)=O)C(C(O)C(O)CO)O3)C2O)C(O)C1O)NC(=O)CCCCCCCCCCCCCCCCCCCCCCC (stereo not drawn) [GM3C24, reference compound] | – | – | selectively increased | significantly enhanced | significantly enhanced | significantly enhanced | selectively increased | – | no increase | – | – | – | – | – | – | – | –
CCCCCCCCCCCCCC=CC(O)C(COC1OC(CO)C(OC2OC(CO)C(O)C(OC3(C(=O)O)CC(O)C(NC(C)=O)C(C(O)C(O)CO)O3)C2O)C(O)C1O)NC(=O)C(O)CCCCCCCCCCCCCCCCCCCCCC (stereo not drawn) [GM3hC24, reference compound] | – | – | selectively increased | significantly enhanced | significantly enhanced | significantly enhanced | selectively increased | – | no increase | – | – | – | – | – | – | – | –
GD1a | – | – | – | – | – | – | – | – | – | strongly inhibited | almost completely inhibited | strongly inhibited | inhibited in a concentration-dependent manner | almost completely inhibited | inhibited in a concentration-dependent manner | inhibited | –
GD1b | – | – | – | – | – | – | – | – | – | strongly inhibited | almost completely inhibited | significantly strongly inhibited | inhibited in a concentration-dependent manner | almost completely inhibited | inhibited in a concentration-dependent manner | inhibited | –
GT1b | – | – | – | – | – | – | – | – | – | strongly inhibited | almost completely inhibited | significantly strongly inhibited | inhibited in a concentration-dependent manner | almost completely inhibited | inhibited in a concentration-dependent manner | inhibited | 250
α-Neu5Ac-(2-3)β-Gal-(1-4)-β-Glc-(1-1)-ceramide [GM3, reference compound] | – | – | – | – | – | – | – | – | – | – | – | significantly increased | – | – | – | – | –

Reference: patent US10849926B2, “GM3-promoted inflammation inhibitor and inflammatory cytokine production inhibitor” (THE NOGUCHI INSTITUTE, priority 2015, dated 2020)
